Experimental data published in EPA's ToxValDB 9.5 (doi:10.2903/j.efsa.2014.3913).

Key:
[1] = test system: Tagia sp.
[2] = test system: Folsomia candida; details: chronic/long-term
[3] = test system: Rattus norvegicus; details: acute; mortality
[4] = test system: Oryctolagus sp.; details: reproduction developmental; organ weight
[5] = test system: Colinus virginianus; details: for LD50: acute, oral, mortality
[6] = test system: Bibionidae; details: chronic/long-term; duration: 28 days
[7] = test system: Cyprinodon variegatus
[8] = test system: Poephila guttata; details: acute; oral; unspecified; mortality
[9] = test system: Daphnia magna; details: chronic/long-term; duration: 21 days
[10] = test system: Apis mellifera; details: acute, mortality
[11] = test system: Chironomus tentans; details: chronic/long-term; duration: 28 days
[12] = test system: Neomysis kadiakensis
[13] = test system: Anas platyrhynchos
[14] = test system: Hypoaspis aculeifer; details: chronic/long-term
[15] = acute, duration: 96 hours, mortality
[16] = chronic/long-term, duration: 28 days

Compound: COC(=O)c1nc(-c2ccc(Cl)c(OC)c2F)cc(N)c1Cl [Halauxifen-methyl]
- LC50 ([1]; acute, duration: 14 days, mortality): > 500 mg/kg
- NOEC ([1]; chronic/long-term, duration: 8 weeks): 5 mg/kg
- NOEC [2]: 500 mg/kg
- LD50 [3]: > 5000 mg/kg
- NOAEL [4]: 5.78 mg/kg-day
- LD50 ([5]; diet): > 1330 mg/kg-day
- LD50 [5]: > 2250 mg/kg
- NOAEL ([5]; reproduction developmental, reproduction): 36.9 mg/kg-day
- NOEC [6]: 1.26 mg/L
- LC50 [7, 15]: > 1.33 µg/mL
- NOEC [7, 16]: 0.0115 mg/L
- LD50 [8]: > 2250 mg/kg
- NOEC [9]: 0.144 mg/L
- LD50 ([10]; dermal): > 98.1 µg/piece
- LD50 ([10]; oral, unspecified): > 108 µg/piece
- NOEC [11]: 89.3 mg/kg
- LC50 [12, 15]: > 1.3 µg/mL
- NOEC [12, 16]: 0.152 mg/L
- NOAEL ([13]; reproductive, reproduction): 160 mg/kg-day
- LD50 ([13]; short-term, oral, feed, mortality): > 2090 mg/kg-day
- NOEC [14]: 12.5 mg/kg
